This note sets out measurements from US20260140118A1, “COMBINATION DRUG” (CHUGAI SEIYAKU KABUSHIKI KAISHA, priority 2022, published 2026).

Assay [1] deals with DTP cells. Briefly: Screening test of anticancer agent library (3114 compounds) for growth suppressive action on DTP cells. Format: cell-based, human. As to conditions: DTP cells from NCI-H2228 treated with alectinib for 13 days.
For assay [2], the system named is DTP cells. Briefly: Cell growth suppression test on DTP cells. Format: cell-based, human. On the procedure:
(§1) Next, for these nine compounds, a cell growth suppression test was conducted, and the ratio of IC50 of DTP cells with respect to the parental line was calculated.

Assay [3] relates to NCI-H2228 cells (parental cells). Briefly: Cell growth suppression test on NCI-H2228 parental cells. Format: cell-based, human. As to conditions: for IC50: Table 3, nine screening hits; for Sensitivity of NCI-H2228 cells: parental cells. On the procedure: as §1
The test system is the same in assay [4]. Described as above. Type of assay: cell-based. As to conditions: Homo sapiens.
In another assay the test system is Regrown cells. Briefly: Cell growth suppression test on regrown cells. Format: cell-based, human. Conditions: DTP cells cultured in alectinib-free medium for 37 days; for IC50: Homo sapiens, Table 4.
The subject of a further assay is FGFR1 knockout cells. Briefly: Cell growth test on FGFR1 knockout cells (CRISPR/Cas9). Conditions: two clones. Type of assay: cell-based, human. The source says: (§2) Using NEPA21 Electroporation, crRNA and Cas9 protein (Nippon Gene Co., Ltd.) targeting FGFR1 or FGF2 (Fasmac) were introduced into cells, two single clones were isolated from each clone cell with Smart Aliquotor (NT Science, Aichi, Japan), and it was confirmed by the Western blotting analysis that FGFR1 or FGF2 knockout cells lost FGFR1 or FGF2 protein (FIG. 5C).

The subject of another assay is FGF2 knockout cells. The assay can be described thus: Cell growth test on FGF2 knockout cells (CRISPR/Cas9). Type of assay: cell-based, human. Conditions: two clones.
Text: as §2

For assay [5], the system named is alectinib-resistant NCI-H2228 cells. Briefly: Cell growth test on alectinib-resistant NCI-H2228 cells. Type of assay: cell-based. As to conditions: Homo sapiens.
Assay [6] relates to FGFR1 or FGF2 knockout cells. The assay can be described thus: Caspase-Glo 3/7 apoptosis assay and Western blotting in FGFR1 or FGF2 knockout cells. Type of assay: cell-based, human. On the procedure:
as §2
The FGFR1 or FGF2 knockout cells obtained as described above were seeded on a 384-well plate, and on the following day, a drug was added at an indicated concentration, followed by culturing for an indicated time. The caspase 3 and 7 activity to signal induction of apoptosis in cells was measured using Caspase-Glo 3/7 Assay (Promega) in accordance with the protocol from the manufacturer. […] Each point represents an average+standard deviation from three experiments.

Assay [7] concerns SNU-2535 cells excessively expressing FGFR1 and FGF2. The assay can be described thus: Cell growth and Western blotting in SNU-2535 cells excessively expressing FGFR1 and FGF2. As to conditions: as compared to control cells or cells excessively expressing FGF2. Type of assay: cell-based, human. An excerpt:
For further confirming that both FGFR1 and FGF2 are necessary for cell survival in ALK inhibitor treatment, FGFR1 and FGF2 were excessively expressed in SNU2535 cells of ALK fusion gene-positive non-small cell lung cancer (NSCLC) (FIG. 7B).
FGFR1, FGF2, or a human coding sequence (CDS) as a control was synthesized, and cloned downstream of an EF1A promoter in a lentivirus vector with VectorBuilder (Chicago, Illinois, USA), and SNU-2535 cells were infected with a lentivirus vector. After 1 day, the culture solution was cultured in a puromycin-containing medium for 4 days, cells excessively expressing FGFR1 and FGF2 were selected, and clones were isolated with Smart Aliquotor. The expression of FGFR1 or FGF2 protein was confirmed by the Western blotting analysis.

Assay [8] concerns DTP cells. As to conditions: Western blotting; STAT3, AKT, ERK, S6, FGFR1. On the procedure:
(§3) The cells were seeded on a 6-well plate, and on the following day, a drug was added, followed by culturing for a certain time. A Sally Sue or Jess capillary electrophoresis-based protein analysis system (ProteinSimple, Santa Clara, CA, USA) was charged with protein lysates in equal amounts for each of Western blotting methods. As the antibody, antibodies to ALK, phospho-ALK, FGFR1, FGFR2, FGFR3, FGFR4, ERK, phospho-ERK, AKT, phospho-AKT, EGFR, phospho-EGFR, MET, β-actin, phospho-MET, HER2, CD44, BIM, VIM, CDH1, S6, pS6 and STAT3 (Cell Signaling Technology, Danvers, MA, USA), Cleaved PARP, phospho-HER2, FGF2 and FGF12 (Abcam) were used.

For assay [9], the system named is NCI-H2228 cells (parental cells). Conditions: Western blotting, STAT3, AKT, ERK, S6. The protocol: as §3
For a further assay, the system named is NCI-H2228 tumor. Briefly: NCI-H2228 subcutaneous xenograft in nude mice. Format: in vivo, mouse. Conditions: oral administration for 11 days. The protocol: From The Jackson Laboratory Japan, Inc. (Yokohama, Japan), 4 to 5-week-old male BALB/c-nu/nu mice (CAnN Cg-Foxn1/Cr1Cr1j nu/nu) were purchased. Cells were subcutaneously inoculated to the right flank region at 5×10^6 per mouse. The tumor volume and the body weight were measured twice weekly, where the tumor volume was estimated as below. Tumor volume=ab^2/2 (a and b indicate the length and the width of the tumor, respectively. After the establishment of the tumor, the mice were assigned randomly to a solvent administration group, drug administration groups, or a combined administration group identical in dose and schedule to the group receiving each single drug, followed by oral administration for 11 days in a row.

Setting [10] is: NCI-H2228, Example 5, read-out: IC50 value, NCI-H2228 cells, FGFR inhibitor alone.
[11] abbreviates: Homo sapiens, Table 3, nine screening hits.
Where [12] appears, read: Homo sapiens, NCI-H2228, NCI-H2228.
Setting [13] is: NCI-H2228, 192 h, Example 4, treated for 8 days, single or in combination, read-out: IC50, NCI-H2228 Parental cells.
The mark [14] stands for this setting: NCI-H2228, FIG. 5D, 5E, read-out: IC50 value, parental cells (comparison to knockout cells).
Setting [15] is: Table 4, NCI-H2228, read-out: IC50, Parental cells.

Read-outs that look alike come from different tables or passages of the source. Where only a bound is given, the exact number is not on record here.

For the molecule `c1cc(Nc2cc(C3CC3)[nH]n2)nc(Nc2ccc3nc[nH]c3c2)n1` [APY29], the “Anti-proliferative effect on DTP cells” value in the assay with DTP cells [1] is given as 0.68. In the assay with DTP cells [2] (Table 3), the “IC50 Ratio of parental to DTP cells” value is given as 3.8. In addition, the IC50 with DTP cells [2] (Table 3, nine screening hits) was determined as 445 nM; in [3], 1700 nM.
As for `COc1cc(CCc2cc(NC(=O)c3ccc(N4C[C@@H](C)N[C@@H](C)C4)cc3)n[nH]2)cc(OC)c1` [AZD4547, N-(5-(3,5-dimethoxyphenethyl)-1H-pyrazol-3-yl)-4-((3S, 5R)-3,5-dimethylpiperazin-1-yl)benzamide], in [4] (setting [10]), the IC50 was greater than 1000 nM.
`Cc1cc([C@@H](C)Nc2ccccc2C(=O)O)c2nc(N3CCOCC3)cc(=O)n2c1` [AZD6482]: the IC50 worked out at 4570 nM in the assay with DTP cells [2] (setting [11]) and 9870 nM in assay [3] (Homo sapiens, NCI-H2228). The “IC50 Ratio of parental to DTP cells” value in the assay on DTP cells [2] (Table 3) was found to be 2.2.
The corresponding values for `CN(C)C/C=C/C(=O)Nc1cc2c(Nc3ccc(F)c(Cl)c3)ncnc2cc1O[C@H]1CCOC1` [Afatinib] are 5020 nM, 6430 nM and 1.3.
As to `CCc1cc2c(cc1N1CCC(N3CCOCC3)CC1)C(C)(C)c1[nH]c3cc(C#N)ccc3c1C2=O.Cl` [Alectinib, 9-ethyl-6,6-dimethyl-8-[4-(morpholin-4-yl)-piperidin-1-yl]-11-oxo-6,11-dihydro-5H-benzo[b]carbazole-3-carbonitrile-hydrochloride], in the assay on DTP cells [2], the “Sensitivity of DTP cells” value is recorded as “did not exhibit sensitivity”. Moreover, the IC50 is greater than 1000 nM in the assay on DTP cells [2] (Homo sapiens, NCI-H2228, 312 h); 480 nM with Regrown cells; 5.4 nM in the assay with FGFR1 knockout cells (setting [12]); 7.3 nM with FGFR1 knockout cells (NCI-H2228); 5.6 nM in the assay on FGF2 knockout cells (setting [12]); 6.1 nM in the assay on FGF2 knockout cells (NCI-H2228). Moreover, the IC50 is greater than 1000 nM in assay [5], 220 nM in [4] (setting [13]), 220 nM in [4] (setting [14]) and 220 nM in [4] (setting [15]). Further, the “Sensitivity of NCI-H2228 cells” value in [3] is “exhibited sensitivity”. Further, the “Sensitivity of regrown cells as compared to DTP cells” value in the assay on Regrown cells is given as “recovered sensitivity”. Moreover, the “Induction of apoptosis (caspase 3 and 7 activity) in FGFR1 or FGF2 knockout cells as compared to parental cells” value in assay [6] is “enhanced”. Besides, in assay [6] (Western blotting), the “Action of inhibiting ERK in FGFR1 or FGF2 knockout cells as compared to parental cells” value was “enhanced”. Moreover, in assay [7], the “Cell growth suppressive effect in cells excessively expressing FGFR1 and FGF2” value was “decreased”. In addition, the “Suppressive effect on the amount of phosphorylation of ERK in cells excessively expressing FGFR1 and FGF2” value in assay [7] is “decreased”.
For `CCN1CCN(c2ccc(Nc3cc(N(C)C(=O)Nc4c(Cl)c(OC)cc(OC)c4Cl)ncn3)cc2)CC1` [BGJ398, N′-(2,6-dichloro-3,5-dimethoxyphenyl)-N-[6-[[4-(4-ethyl-1-piperazinyl)phenyl]amino]-4-pyrimidinyl]-N-methyl-urea], the “Sensitivity of DTP cells” value in the assay on DTP cells [2] is “exhibited sensitivity”. Besides, the IC50 with DTP cells [2] (Homo sapiens, NCI-H2228, 312 h) is 57.8 nM; in the assay on Regrown cells it was greater than 1000 nM; in assay [5], greater than 1000 nM; in assay [4] (setting [13]) it was greater than 1000 nM; in assay [4] (setting [10]), greater than 1000 nM; in [4] (setting [15]), greater than 1000 nM. Besides, the “Sensitivity of NCI-H2228 cells” value in assay [3] was “did not exhibit sensitivity”. Moreover, the “Sensitivity of regrown cells as compared to DTP cells” value with Regrown cells is “lost sensitivity”. The “Action of inhibiting the phosphorylation of signal molecules in DTP cells” value in the assay with DTP cells [8] was “an action of inhibiting the phosphorylation of FGFR1 and phosphorylation of ERK”. For the same molecule, in assay [9], the “Action of inhibiting the phosphorylation of ALK/FGFR1 signal molecules in parental cells” value is “not observed”. Besides, the “Tumor growth suppressive effect” value in the assay on NCI-H2228 tumor is “did not suppress tumor growth”.
With `C[C@@H]1C[C@H]2[C@@H]3CCC4=CC(=O)C=C[C@]4(C)[C@@]3(F)[C@@H](O)C[C@]2(C)[C@@]1(O)C(=O)CO` [Dexamethasone], the IC50 in the assay on DTP cells [2] (setting [11]) was 1320 nM; in assay [3] (Homo sapiens, NCI-H2228), greater than 10000 nM.
Regarding `COc1cc(OC)cc(N(CCNC(C)C)c2ccc3ncc(-c4cnn(C)c4)nc3c2)c1` [Erdafitinib, N^1-(3,5-dimethoxyphenyl)-N^2-(1-methylethyl)-N^1-[3-(1-methyl-1H-pyrazol-4-yl)-6-quinoxalinyl]-1,2-ethanediamine], in the assay with DTP cells [2] (by ratio of IC50), the “Cell growth suppressive effect on DTP cells among the nine compounds” value is listed as “most potent cell growth suppressive effect”.
With `C[C@]12CCC(=O)C=C1CC[C@@H]1[C@@H]2[C@@H](O)C[C@@]2(C)[C@H]1CC[C@]2(O)C(=O)CO` [Hydrocortisone], the IC50 with DTP cells [2] (setting [11]) is 2160 nM; in assay [3] (Homo sapiens, NCI-H2228), greater than 10000 nM.
Consider `C[C@H]1Oc2cc(cnc2N)-c2c(nn(C)c2C#N)CN(C)C(=O)c2ccc(F)cc21` [Lorlatinib, (10R)-7-amino-12-fluoro-2,10,16-trimethyl-15-oxo-10,15,16,17-tetrahydro-2H-4,8-methanepyrazolo[4,3-h][2,5,11]benzoxadiazacyclotetradecine-3-carbonitrile], for which the IC50 is greater than 1000 nM in the assay on DTP cells [2] (Homo sapiens, NCI-H2228, 312 h); 0.7 nM with FGFR1 knockout cells (setting [12]); 0.7 nM in the assay on FGF2 knockout cells (setting [12]); 0.9 nM with FGF2 knockout cells (NCI-H2228); greater than 1000 nM in assay [4] (setting [14]); 3.8 nM in assay [4] (setting [15]).
Take `COc1cc([C@@H]2c3cc4c(cc3[C@H](O)[C@H]3COC(=O)[C@@H]23)OCO4)cc(OC)c1OC` [PPP, picropodophyllin]: in the assay with DTP cells [2] (FIGS. 1A and B), the “Cell growth suppressive effects in parental cells and DTP cells compared” value is on record as “substantially equivalent”. For the same molecule, the IC50 was 182 nM with DTP cells [2] (Homo sapiens, NCI-H2228, 312 h) and 152 nM in assay [4] (setting [15]).
On to `C=CC(=O)N1CCC(Oc2cc3c(Nc4ccc(Cl)c(Cl)c4F)ncnc3cc2OC)CC1` [Poziotinib], for which the IC50 with DTP cells [2] (setting [11]) amounted to 1390 nM; in [3] (Homo sapiens, NCI-H2228), 3920 nM. Further, the “IC50 Ratio of parental to DTP cells” value with DTP cells [2] (Table 3) is listed as 2.8.
The corresponding values for `CN(C)C/C=C/C(=O)Nc1ccc(C(=O)N2CCC[C@@H](Nc3ncc(Cl)c(-c4c[nH]c5ccccc45)n3)C2)cc1` [THZ531] are 154 nM, 270 nM and 1.8.
In the case of `C[C@]12C=CC(=O)C=C1CC[C@H]1[C@@H]3C[C@@H](O)[C@](O)(C(=O)CO)[C@@]3(C)C[C@H](O)[C@@]12F` [Triamcinolone], the IC50 in the assay with DTP cells [2] (setting [11]) was 1360 nM; in [3] (Homo sapiens, NCI-H2228) it was greater than 10000 nM.
